The values below come from patent US20150133527A1, “REGULATION OF CARDIAC SODIUM CHANNELS BY SIRT1 AND SIRT1 ACTIVATORS” (University of Pittsburgh - Of the Commonwealth System of …, priority 2012, published 2015).

The test system of one assay is native Nav1.5. Briefly: Lysine acetylation of native Nav1.5 in rat neonatal cardiomyocytes (Western blot). In kind it is cell-based. The method, then:
FIGS. 9A-9C are a graph and a set of Western blots showing that inhibition of endogenous SIRT1 increases lysine acetylation of native Nav1.5 in rat neonatal cardiomyocytes.
(§1) How SIRT1 acts to increase Nav1.5 membrane localization and INa was addressed. Because SIRT1 is a lysine deacetylase, it was hypothesized that it changes the acetylation status of lysine residues in Nav1.5. To test this hypothesis, whether the two proteins bind to each other was tested. […] In addition, endogenous SIRT1 co-precipitated with endogenous Nav1.5 in NRCMs and in mouse hearts (FIG. 7B). Next, if Nav1.5 is acetylated on lysine residues was determined. In HEK 293 cells expressing the full-length channel, Nav1.5 was robustly acetylated on lysine residues, and overexpression or stimulation (with resveratrol) of SIRT1 decreased, while inhibition of SIRT1 with NAM increased, this acetylation (FIG. 8).
A general note: In western blotting, separated proteins are transferred to a membrane and probed.

The next assay deals with native Nav1.5 (INa). The experiment in a line: Whole cell patch clamp of INa in rat neonatal cardiac myocytes. In kind it is cell-based. Conditions: 5 μM.
The subject of a further assay is Nav1.5 (III-IV). Briefly: Lysine acetylation of GST-tagged Nav1.5 (III-IV) expressed in HEK 293 cells. It counts as cell-based. The following applies: GST-tagged loop III-IV construct in HEK 293 cells. From the text:
GST-tagged Nav1.5 (III-IV) was expressed in HEK 293 cells. Cells were co-transfected with wild-type SIRT1 or treated with NAM or resveratrol. Nav1.5 (III-IV) was pulled down with GST-agarose, and immunoblotted (IB) with GST and acety-lysine antibodies.
Because Nav1.5 has 84 lysine residues, the number of putative lysine targets of SIRT1 was narrowed down by excluding the extra-cellular and membrane-spanning domains. Attention was initially focused on one intracellular region (termed loop III-IV) which is rich in lysine residues (12 lysines), based on by prior reports showing that lysines in this region are important for channel function (Grant et al., J. Clinic. Invest. 110, 1201-1209, 2002). Using a GST-tagged construct encoding the 61 amino acids in loop III-IV expressed in HEK 293 cells, if lysine acetylation of this region of Nav1.5 is regulated by SIRT1 was examined.

A further assay concerns full-length Nav1.5. The experiment in a line: Lysine acetylation of full-length Nav1.5 expressed in HEK 293 cells (acetyl-lysine IP / immunoblot). It counts as cell-based. The following applies: HEK 293 cells expressing the full-length channel.
From the text: FIGS. 8A and 8B show a series of Western blot images illustrating that wild-type SIRT1 deacetylates full-length Nav1.5. (8A) GFP-tagged full-length Nav1.5 was expressed in HEK 293 cells, with and without myc-tagged wild-type SIRT1, and immunoprecipitated (IP). IPs were immunoblotted (IB) with GFP and myc. (8B) Nav1.5 was expressed in HEK 293 cells. Cells were co-transfected with SIRT or treated with resveratrol or NAM. Acetyl-lysine IPs were immunoblotted for Nav1.5
as §1

The test system of the next assay is GST-Nav1.5 (III-IV). Briefly: Ubiquitination of GST-Nav1.5 (III-IV) in HEK 293 cells. It counts as cell-based.
Another assay in a line: QRS amplitude on ECGs. It counts as in vivo. The following applies: suggestive of increased sodium currents. From the text:
It is disclosed herein that SIRT1 can deacetylate Nav1.5, that Nav1.5 and SIRT1 co-immunoprecipitate, that over-expression of SIRT1 increases INa currents and that dominant negative suppression of SIRT1 or use of SIRT1 inhibitors decreases INa currents, that SIRT1 increases membrane expression of Nav1.5 and dominant negative SIRT1 decreases membrane expression of Nav1.5, that SIRT1 targets lysine 1479 in Nav1.5, that SIRT1 increases INa and dominant negative SIRT1 decreases INa by targeting lysine 1479 in Nav1.5, and that SIRT1 increases membrane expression of Nav1.5 by targeting lysine 1479 in Nav1.5. In addition there is prolongation of the PR interval, intermittent high-grade atrioventricular block on ECGs and telemetry of cardiomyocyte-specific SIRT1 knockout mice compared to wild type control mice, and decreased conduction velocity of the electrical impulse in hearts of cardiomyocyte-specific SIRT1 knockout mice compared to wild type control mice.

Assay [1] deals with GFP-tagged full-length Nav1.5. The experiment in a line: Ubiquitination of GFP-tagged full-length Nav1.5 in HEK 293 cells. In kind it is cell-based. The following applies: resveratrol 100 μM, 4 hrs. The method, then:
FIGS. 13A and 13B are a set of Western blots showing that SIRT1 de-ubiquitinates Nav1.5. (A) HEK 293 cells were transfected with full-length GFP-tagged Nav1.5 and HA-ubiquitin. Cells were treated with resveratrol (100 μM, 4 hrs). Nav1.5 was immunoprecipitated (IP) with GFP and immunoblotted with GFP and HA. (B) HEK 293 cells were transfected with GST-tagged Nav1.5 (III-IV) and HA-ubiquitin. Cells were treated with NAM or co-transfected with SIRT1. Nav1.5 (III-IV) was pulled down with GST-agarose and immunoblotted (IB) with HA.
Poly-ubiquitination of Nav1.5 inhibits its membrane localization (Van Bemmelen et al., Circ. Res. 95, 284-291, 2004). SIRT1 regulates ubiquitination of some of its targets, in some cases decreasing ubiquitination (Van Bemmelen et al., Circ. Res. 95, 284-291, 2004). Because SIRT1 increases membrane expression of Nav1.5, whether SIRT1 decreases ubiquitination of the channel was tested. First, the effect of the SIRT1 activator resveratrol on ubiquitination of Nav1.5 was determined. In HEK 293 cells GFP-tagged full-length Nav1.5 was robustly poly-ubiquitinated (FIG. 13A). […] Using GST-Nav1.5 (III-IV) the effect of SIRT1 on ubiquitination of this intracellular region of Nav1.5 was also examined. Similar to full-length Nav1.5, GST-Nav1.5 (III-IV) was also poly-ubiquitinated (FIG. 13B). […]

Take `NC(=O)[C@H]1CCCc2c1[nH]c1ccc(Cl)cc21` [Ex-243]: the “lysine acetylation of native Nav1.5” value in the assay with native Nav1.5 is reported as “increases”. The “effect on INa” value in the assay on native Nav1.5 (INa) (compared to inactive isomer Ex-242) is on record as “significantly decreased”; in the assay with native Nav1.5 (INa) (compared to inactive isomer Ex-242, listed as ex-243) it was “decreases”.

Turning to `NC(=O)c1cccnc1` [NAM, nicotinamide], the “acetylation of Nav1.5 (III-IV)” value in the assay with Nav1.5 (III-IV) is recorded as “increased”. The “lysine acetylation of full-length Nav1.5” value in the assay with full-length Nav1.5 was “increased”. For the same compound, the “poly-ubiquitination of GST-Nav1.5 (III-IV)” value in the assay on GST-Nav1.5 (III-IV) is on record as “increased”.

On to `Oc1ccc(C=Cc2cc(O)cc(O)c2)cc1` [resveratrol], for which the “acetylation of Nav1.5 (III-IV)” value in the assay with Nav1.5 (III-IV) is listed as “decreased”. Also, the “QRS amplitude on ECGs” value in “QRS amplitude on ECGs” is “increased”. The “lysine acetylation of full-length Nav1.5” value with full-length Nav1.5 is “decreased”. Moreover, the “poly-ubiquitination of full-length Nav1.5” value in assay [1] is given as “significantly decreased”.
